According to ChEMBL document CHEMBL4334431, “Gramicidin S-inspired antimicrobial cyclodextrin to disrupt gram-negative and gram-positive bacterial membranes” (Medchemcomm, 2019):
≈ marks a conversion by molar mass, not a printed value. Calls of active or inactive are those of the source. The calls are words filed in the database; no cut-off is given here. Square brackets hold non-standard residues; d marks the D form. Peptide text beside a SMILES is read from it. Orn = NCCC[C@H](N)C(=O)O

What was measured:
Staphylococcus aureus [1] = test: Antibacterial activity against Staphylococcus aureus FDA 209P assessed as bacterial growth inhibition after 20 hrs by liquid microdilution method; type: functional
Escherichia coli [2] = test: Antibacterial activity against Escherichia coli K12 W3110 assessed as bacterial growth inhibition after 20 hrs by liquid microdilution method; type: functional; conditions: K-12 substr. W3110, 20 h
Bacillus subtilis = test: Antibacterial activity against Bacillus subtilis 168 assessed as bacterial growth inhibition after 20 hrs by liquid microdilution method; type: functional; conditions: Bacillus subtilis, 168, 20 h
Salmonella typhimurium = test: Antibacterial activity against Salmonella typhimurium LT2 assessed as bacterial growth inhibition after 20 hrs by liquid microdilution method; type: functional, Salmonella enterica subsp. enterica serovar Typhimurium; conditions: Salmonella enterica, LT2, 20 h
Pseudomonas aeruginosa = test: Antibacterial activity against Pseudomonas aeruginosa PAO1 assessed as bacterial growth inhibition after 20 hrs by liquid microdilution method; type: functional; conditions: PAO1, 20 h
[3] = Haemolytic activity in rabbit RBCs at 50 uM relative to control; type: ADME, cell-based, Oryctolagus cuniculus, Erythrocyte; conditions: rabbit red blood cells (erythrocytes), read-out: Activity
[4] = Partition coefficient, log P of compound; type: physicochemical; conditions: octanol/water
Staphylococcus aureus [5] = test: Induction of membrane permeabilization in Staphylococcus aureus FDA 209P assessed as decrease in cell viability; type: functional, organism-based
Staphylococcus aureus [6] = test: Induction of membrane permeabilization in Staphylococcus aureus FDA 209P assessed as increase in potassium efflux; type: functional, organism-based
Escherichia coli [7] = test: Induction of membrane permeabilization in Escherichia coli K12 W3110 assessed as increase in potassium efflux; type: functional, organism-based
Escherichia coli [8] = test: Induction of membrane permeabilization in Escherichia coli K12 W3110 assessed as decrease in cell viability; type: functional, organism-based
Staphylococcus aureus [9] = test: Antibacterial activity against Staphylococcus aureus FDA 209P at sub-MIC treated over 2 serial passages by resistant development assay; type: functional
Staphylococcus aureus [10] = test: Antibacterial activity against Staphylococcus aureus FDA 209P at sub-MIC treated over 4 serial passages by resistant development assay; type: functional
Escherichia coli [11] = test: Antimicrobial activity against […] at sub-MIC treated by resistant development assay; type: functional; conditions: K-12 substr. W3110

Structure (SMILES): CC(C)C[C@@H]1NC(=O)[C@H](CCCN)NC(=O)[C@H](C(C)C)NC(=O)[C@@H]2CCCN2C(=O)[C@@H](Cc2ccccc2)NC(=O)[C@H](CC(C)C)NC(=O)[C@H](CCCN)NC(=O)[C@H](C(C)C)NC(=O)[C@@H]2CCCN2C(=O)[C@@H](Cc2ccccc2)NC1=O (cyclo(V[Orn]L[dF]PV[Orn]L[dF]P))
- MIC (Staphylococcus aureus [1]): 4 µM (≈ 4.57 µg/mL)
- MIC (Escherichia coli [2]): 28 µM (≈ 32 µg/mL)

Structure (SMILES): NCc1cn(C[C@H]2O[C@@H]3O[C@H]4[C@H](O)[C@@H](O)[C@@H](O[C@H]5[C@H](O)[C@@H](O)[C@@H](O[C@H]6[C@H](O)[C@@H](O)[C@@H](O[C@H]7[C@H](O)[C@@H](O)[C@@H](O[C@H]8[C@H](O)[C@@H](O)[C@@H](O[C@H]9[C@H](O)[C@@H](O)[C@@H](O[C@H]%10[C@@H](O)[C@H](O)[C@@H](O[C@H]2[C@H](O)[C@H]3O)O[C@@H]%10Cn2cc(CN)nn2)O[C@@H]9Cn2cc(CN)nn2)O[C@@H]8Cn2cc(CN)nn2)O[C@@H]7Cn2cc(CN)nn2)O[C@@H]6Cn2cc(CN)nn2)O[C@@H]5Cn2cc(CN)nn2)O[C@@H]4Cn2cc(CN)nn2)nn1
- MIC (Staphylococcus aureus [1]): > 45 µM
- MIC (Bacillus subtilis): 22 µM (≈ 42.6 µg/mL)
- MIC (Escherichia coli [2]): > 45 µM
- MIC (Salmonella typhimurium): > 45 µM
- MIC (Pseudomonas aeruginosa): > 45 µM
- hemolysis at 50 µM [3]: 0%
- logP [4]: -2.66

Structure (SMILES): CCCC(=O)O[C@@H]1[C@@H](OC(=O)CCC)[C@H]2O[C@H]3[C@H](OC(=O)CCC)[C@@H](OC(=O)CCC)[C@@H](O[C@H]4[C@H](OC(=O)CCC)[C@@H](OC(=O)CCC)[C@@H](O[C@H]5[C@H](OC(=O)CCC)[C@@H](OC(=O)CCC)[C@@H](O[C@H]6[C@H](OC(=O)CCC)[C@@H](OC(=O)CCC)[C@@H](O[C@H]7[C@H](OC(=O)CCC)[C@@H](OC(=O)CCC)[C@@H](O[C@H]8[C@H](OC(=O)CCC)[C@@H](OC(=O)CCC)[C@@H](O[C@H]9[C@H](OC(=O)CCC)[C@@H](OC(=O)CCC)[C@@H](O[C@@H]1[C@@H](Cn1cc(CN)nn1)O2)O[C@@H]9Cn1cc(CN)nn1)O[C@@H]8Cn1cc(CN)nn1)O[C@@H]7Cn1cc(CN)nn1)O[C@@H]6Cn1cc(CN)nn1)O[C@@H]5Cn1cc(CN)nn1)O[C@@H]4Cn1cc(CN)nn1)O[C@@H]3Cn1cc(CN)nn1
- Activity (Staphylococcus aureus [5]): Active
- MIC (Staphylococcus aureus [1]): > 32 µM
- MIC (Bacillus subtilis): > 32 µM
- MIC (Escherichia coli [2]): > 32 µM
- MIC (Salmonella typhimurium): > 32 µM
- MIC (Pseudomonas aeruginosa): > 32 µM
- Activity (Staphylococcus aureus [6]): Active
- Activity (Escherichia coli [7]): Active
- hemolysis at 50 µM [3]: 102%
- logP [4]: -0.06
- Activity (Escherichia coli [8]): Active

Structure (SMILES): CCCCCCCCCC(=O)N[C@@H](Cc1c[nH]c2ccccc12)C(=O)N[C@H](CC(N)=O)C(=O)N[C@@H](CC(=O)O)C(=O)N[C@@H]1C(=O)NCC(=O)N[C@@H](CCCN)C(=O)N[C@@H](CC(=O)O)C(=O)N[C@H](C)C(=O)N[C@@H](CC(=O)O)C(=O)NCC(=O)N[C@H](CO)C(=O)N[C@@H]([C@H](C)CC(=O)O)C(=O)N[C@@H](CC(=O)c2ccccc2N)C(=O)O[C@@H]1C
- MIC (Staphylococcus aureus [1]): 3 µM (≈ 4.86 µg/mL)

Structure (SMILES): C[C@@H]1O[C@@H]1P(=O)(O)O [FOSFOMYCIN]
- MIC (Staphylococcus aureus [9]): 14 µM (≈ 1.93 µg/mL)
- MIC (Staphylococcus aureus [10]): > 927 µM
- MIC (Escherichia coli [11]): 58 to 927 µM (≈ 8.01 to 128 µg/mL)

Structure (SMILES): CC(C)CC(=O)O[C@@H]1[C@@H](OC(=O)CC(C)C)[C@H]2O[C@H]3[C@H](OC(=O)CC(C)C)[C@@H](OC(=O)CC(C)C)[C@@H](O[C@H]4[C@H](OC(=O)CC(C)C)[C@@H](OC(=O)CC(C)C)[C@@H](O[C@H]5[C@H](OC(=O)CC(C)C)[C@@H](OC(=O)CC(C)C)[C@@H](O[C@H]6[C@H](OC(=O)CC(C)C)[C@@H](OC(=O)CC(C)C)[C@@H](O[C@H]7[C@H](OC(=O)CC(C)C)[C@@H](OC(=O)CC(C)C)[C@@H](O[C@H]8[C@H](OC(=O)CC(C)C)[C@@H](OC(=O)CC(C)C)[C@@H](O[C@H]9[C@H](OC(=O)CC(C)C)[C@@H](OC(=O)CC(C)C)[C@@H](O[C@@H]1[C@@H](Cn1cc(CN)nn1)O2)O[C@@H]9Cn1cc(CN)nn1)O[C@@H]8Cn1cc(CN)nn1)O[C@@H]7Cn1cc(CN)nn1)O[C@@H]6Cn1cc(CN)nn1)O[C@@H]5Cn1cc(CN)nn1)O[C@@H]4Cn1cc(CN)nn1)O[C@@H]3Cn1cc(CN)nn1
- MIC (Staphylococcus aureus [1]): > 31 µM
- MIC (Bacillus subtilis): > 31 µM
- MIC (Escherichia coli [2]): > 31 µM
- MIC (Salmonella typhimurium): > 43 µM
- MIC (Pseudomonas aeruginosa): > 43 µM
- hemolysis at 50 µM [3]: 87%
- logP [4]: 0.6
